Measurements: patent publication US11006626B2, “Compounds for protection of cells” (Sulfateq B.V., priority 2012, dated 2021)

Experiments:
Format in all cases: cell-based
[1] = system: PRP platelets; assay: PRP platelets stored with Sul 136, aggregation after stimulation with collagen; set-up: key: +means that the cells show aggregation; ++means strong aggregation, these platelets can thus be activated upon stimulation; −means no aggregation upon stimulation
Protocol: (§1) […] • The color and coagulation properties were visually analysed. • The thrombocyte cells that survived were counted and it was evaluated whether the thrombocytes were aggregated. • It was evaluated if the thrombocytes still were able to function after stimulation by the addition of ADP or under influence of collagen in a 96 well plate. • The adhesion was evaluated, meaning the ability of the platelets to bind collagen in a 6 well plate preincubated with collagen. • Via an ELISA assay, it was evaluated whether thromboxane was secreted from the platelets. Thromboxane facilitates aggregation and is produced by activated blood platelets.
(+means that the cells show aggregation, ++means strong aggregation, these platelets can thus be activated upon stimulation, −means no aggregation upon stimulation)

[2] = system: PRP platelets; assay: PRP platelets stored with Sul 136, aggregation after stimulation with ADP; set-up: key to aggregation of the platelets after stimulation with ADP: +means that the cells show aggregation and can thus be activated upon stimulation; −means no aggregation upon stimulation
Protocol: as §1
(+means that the cells show aggregation and can thus be activated upon stimulation, −means no aggregation upon stimulation)

[3] = system: PRP platelets; assay: PRP platelets stored at 4° C. with Sul 136, number of cells that survived; conditions: for number of cells in % relative to the number of cells at time 0: 4° C.
Protocol: […] The blood platelets with the compound were then stored at 4° C.
and tested as follows: • The color and coagulation properties were visually analysed. • The thrombocyte cells that survived were counted and it was evaluated whether the thrombocytes were aggregated. • It was evaluated if the thrombocytes still were able to function after stimulation by the addition of ADP or under influence of collagen in a 96 well plate. • The adhesion was evaluated, meaning the ability of the platelets to bind collagen in a 6 well plate preincubated with collagen. • Via an ELISA assay, it was evaluated whether thromboxane was secreted from the platelets. Thromboxane facilitates aggregation and is produced by activated blood platelets.
PRP platelets were tested with the addition of Sul 136. […] The number of cells are given in % relative to the number of cells at time 0. 66% of the platelets stored at room temperature survived after 216 hours. Only 42.3% of the cells stored at 4° C. survived after 216 hours.

With `Cc1c(C)c2c(c(C)c1O)CCC(C)(C(=O)N1CCN(CC(=O)O)CC1)O2` (racemic) [SUL - 136, 2-(4-(6-hydroxy-2,5,7,8-tetramethylchroman-2-carbonyl)piperazin-1-yl)acetic acid] the “aggregation of the PRP platelets after stimulation with collagen” value (from here on “aggregation of the PRP platelets”) ([1]; 10 min 0.001 mM, 0 h) was “+”, the “aggregation of the PRP platelets” value ([1]; 10 min 0.01 mM, 0 h) was “+” and the “aggregation of the PRP platelets” value ([1]; 10 min 0.1 mM, 0 h) was “+”. The “aggregation of the PRP platelets” value ([1]; 10 min 1 mM, 0 h) was “+”, the “aggregation of the PRP platelets” value ([1]; 10 min 10 mM, 0 h) was “++” and the “aggregation of the PRP platelets” value ([1]; 10 min 10 mM, 24 h) was “++”. For the same compound, the “aggregation of the PRP platelets” value ([1]; 10 min 10 mM, 48 h) was “++”, the “aggregation of the PRP platelets” value ([1]; 10 min 10 mM, 72 h) was “++” and the “aggregation of the PRP platelets” value ([1]; 10 min 10 mM, 216 h) was “++”. The “aggregation of the PRP platelets” value ([1]; 60 min 0.001 mM, 0 h) was “+”, the “aggregation of the PRP platelets” value ([1]; 60 min 0.01 mM, 0 h) was “+” and the “aggregation of the PRP platelets” value ([1]; 60 min 0.1 mM, 0 h) was “+”. For the same compound, the “aggregation of the PRP platelets” value ([1]; 60 min 1 mM, 0 h) was “+”, the “aggregation of the PRP platelets” value ([1]; 60 min 10 mM, 0 h) was “++” and the “aggregation of the PRP platelets” value ([1]; 60 min 10 mM, 24 h) was “++”. For the same compound, the “aggregation of the PRP platelets” value ([1]; 60 min 10 mM, 48 h) was “++”, the “aggregation of the PRP platelets” value ([1]; 60 min 10 mM, 72 h) was “++” and the “activity after stimulation with ADP” value ([2]; 10 mM) was “still showed activity”. The “aggregation of the platelets after stimulation with ADP” value (shortened to “aggregation of the platelets”) ([2]; 10 min 0.001 mM, 0 h) was “+”, the “aggregation of the platelets” value ([2]; 10 min 0.001 mM, 24 h) was “−” and the “aggregation of the platelets” value ([2]; 10 min 0.001 mM, 48 h) was “−”. The “aggregation of the platelets” value ([2]; 10 min 0.001 mM, 72 h) was “−”, the “aggregation of the platelets” value ([2]; 10 min 0.001 mM, 216 h) was “−” and the “aggregation of the platelets” value ([2]; 10 min 0.01 mM, 0 h) was “+”. The “aggregation of the platelets” value ([2]; 10 min 0.01 mM, 24 h) was “−”, the “aggregation of the platelets” value ([2]; 10 min 0.01 mM, 48 h) was “−” and the “aggregation of the platelets” value ([2]; 10 min 0.01 mM, 72 h) was “−”. For the same compound, the “aggregation of the platelets” value ([2]; 10 min 0.01 mM, 216 h) was “−”, the “aggregation of the platelets” value ([2]; 10 min 0.1 mM, 0 h) was “+” and the “aggregation of the platelets” value ([2]; 10 min 0.1 mM, 24 h) was “−”. The “aggregation of the platelets” value ([2]; 10 min 0.1 mM, 48 h) was “−”, the “aggregation of the platelets” value ([2]; 10 min 0.1 mM, 72 h) was “−” and the “aggregation of the platelets” value ([2]; 10 min 0.1 mM, 216 h) was “−”. The “aggregation of the platelets” value ([2]; 10 min 1 mM, 0 h) was “+”, the “aggregation of the platelets” value ([2]; 10 min 1 mM, 24 h) was “−” and the “aggregation of the platelets” value ([2]; 10 min 1 mM, 48 h) was “−”. The “aggregation of the platelets” value ([2]; 10 min 1 mM, 72 h) was “−”, the “aggregation of the platelets” value ([2]; 10 min 1 mM, 216 h) was “−” and the “aggregation of the platelets” value ([2]; 10 min 10 mM, 0 h) was “+”. For the same compound, the “aggregation of the platelets” value ([2]; 10 min 10 mM, 24 h) was “+”, the “aggregation of the platelets” value ([2]; 10 min 10 mM, 48 h) was “+” and the “aggregation of the platelets” value ([2]; 10 min 10 mM, 72 h) was “+”. For the same compound, the “aggregation of the platelets” value ([2]; 10 min 10 mM, 216 h) was “+”, the “aggregation of the platelets” value ([2]; 60 min 0.001 mM, 0 h) was “+” and the “aggregation of the platelets” value ([2]; 60 min 0.001 mM, 24 h) was “−”. The “aggregation of the platelets” value ([2]; 60 min 0.001 mM, 48 h) was “−”, the “aggregation of the platelets” value ([2]; 60 min 0.001 mM, 72 h) was “−” and the “aggregation of the platelets” value ([2]; 60 min 0.001 mM, 216 h) was “−”. The “aggregation of the platelets” value ([2]; 60 min 0.01 mM, 0 h) was “+”, the “aggregation of the platelets” value ([2]; 60 min 0.01 mM, 24 h) was “−” and the “aggregation of the platelets” value ([2]; 60 min 0.01 mM, 48 h) was “−”. For the same compound, the “aggregation of the platelets” value ([2]; 60 min 0.01 mM, 72 h) was “−”, the “aggregation of the platelets” value ([2]; 60 min 0.01 mM, 216 h) was “−” and the “aggregation of the platelets” value ([2]; 60 min 0.1 mM, 0 h) was “+”. The “aggregation of the platelets” value ([2]; 60 min 0.1 mM, 24 h) was “−”, the “aggregation of the platelets” value ([2]; 60 min 0.1 mM, 48 h) was “−” and the “aggregation of the platelets” value ([2]; 60 min 0.1 mM, 72 h) was “−”. The “aggregation of the platelets” value ([2]; 60 min 0.1 mM, 216 h) was “−”, the “aggregation of the platelets” value ([2]; 60 min 1 mM, 0 h) was “+” and the “aggregation of the platelets” value ([2]; 60 min 1 mM, 24 h) was “−”. The “aggregation of the platelets” value ([2]; 60 min 1 mM, 48 h) was “−”, the “aggregation of the platelets” value ([2]; 60 min 1 mM, 72 h) was “−” and the “aggregation of the platelets” value ([2]; 60 min 1 mM, 216 h) was “−”. For the same compound, the “aggregation of the platelets” value ([2]; 60 min 10 mM, 0 h) was “+”, the “aggregation of the platelets” value ([2]; 60 min 10 mM, 24 h) was “+” and the “aggregation of the platelets” value ([2]; 60 min 10 mM, 48 h) was “+”. For the same compound, the “aggregation of the platelets” value ([2]; 60 min 10 mM, 72 h) was “+”, the “aggregation of the platelets” value ([2]; 60 min 10 mM, 216 h) was “−” and the “number of cells in % relative to the number of cells at time 0” value ([3]; 10 min 0.001 mM, 0 h) was 100%. For the same compound, the “number of cells in % relative to the number of cells at time 0” value ([3]; 10 min 0.001 mM, 72 h) was 58.9%, the “number of cells in % relative to the number of cells at time 0” value ([3]; 10 min 0.001 mM, 216 h) was 55.1% and the “number of cells in % relative to the number of cells at time 0” value ([3]; 10 min 0.01 mM, 0 h) was 100%. The “number of cells in % relative to the number of cells at time 0” value ([3]; 10 min 0.01 mM, 72 h) was 66.0%, the “number of cells in % relative to the number of cells at time 0” value ([3]; 10 min 0.01 mM, 216 h) was 52.1% and the “number of cells in % relative to the number of cells at time 0” value ([3]; 10 min 0.1 mM, 0 h) was 100%. For the same compound, the “number of cells in % relative to the number of cells at time 0” value ([3]; 10 min 0.1 mM, 72 h) was 55.9%, the “number of cells in % relative to the number of cells at time 0” value ([3]; 10 min 0.1 mM, 216 h) was 50.8% and the “number of cells in % relative to the number of cells at time 0” value ([3]; 10 min 1 mM, 0 h) was 100%. For the same compound, the “number of cells in % relative to the number of cells at time 0” value ([3]; 10 min 1 mM, 72 h) was 59.1%, the “number of cells in % relative to the number of cells at time 0” value ([3]; 10 min 1 mM, 216 h) was 59.3% and the “number of cells in % relative to the number of cells at time 0” value ([3]; 10 min 10 mM, 0 h) was 100%. For the same compound, the “number of cells in % relative to the number of cells at time 0” value ([3]; 10 min 10 mM, 72 h) was 64.8%, the “number of cells in % relative to the number of cells at time 0” value ([3]; 10 min 10 mM, 216 h) was 47.9% and the “number of cells in % relative to the number of cells at time 0” value ([3]; 60 min 0.001 mM, 0 h) was 100%. The “number of cells in % relative to the number of cells at time 0” value ([3]; 60 min 0.001 mM, 72 h) was 83.8%, the “number of cells in % relative to the number of cells at time 0” value ([3]; 60 min 0.001 mM, 216 h) was 86.1% and the “number of cells in % relative to the number of cells at time 0” value ([3]; 60 min 0.01 mM, 0 h) was 100%. The “number of cells in % relative to the number of cells at time 0” value ([3]; 60 min 0.01 mM, 72 h) was 82.9%, the “number of cells in % relative to the number of cells at time 0” value ([3]; 60 min 0.01 mM, 216 h) was 94.8% and the “number of cells in % relative to the number of cells at time 0” value ([3]; 60 min 0.1 mM, 0 h) was 100%. The “number of cells in % relative to the number of cells at time 0” value ([3]; 60 min 0.1 mM, 72 h) was 76.3%, the “number of cells in % relative to the number of cells at time 0” value ([3]; 60 min 0.1 mM, 216 h) was 77.6% and the “number of cells in % relative to the number of cells at time 0” value ([3]; 60 min 1 mM, 0 h) was 100%. For the same compound, the “number of cells in % relative to the number of cells at time 0” value ([3]; 60 min 1 mM, 72 h) was 29.9%, the “number of cells in % relative to the number of cells at time 0” value ([3]; 60 min 1 mM, 216 h) was 62.9% and the “number of cells in % relative to the number of cells at time 0” value ([3]; 60 min 10 mM, 0 h) was 100%. The “number of cells in % relative to the number of cells at time 0” value ([3]; 60 min 10 mM, 72 h) was 51.8%, the “number of cells in % relative to the number of cells at time 0” value ([3]; 60 min 10 mM, 216 h) was 43.4% and the “platelets survived after storage” value ([3]; storage of 72 and 216 hours at 4° C., vs. no compound) was “substantial more platelets survived”.
